According to US12215140B2, “Method of stabilizing protein contained in specimen and solution for stabilizing protein contained in specimen” (EIKEN KAGAKU KABUSHIKI KAISHA, priority 2018, dated 2025):

System: hemoglobin-haptoglobin complex
Assay: Stability of hemoglobin (as hemoglobin-haptoglobin complex) in samples preserved at 37° C. in preservation solution containing 1 unit/L haptoglobin, Hb measured by latex agglutination method (Examples 1 to 7)
Set-up: species or system human
Settings: 37° C.
Outline: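 Hemoglobin (~300 µg/L) in 0.5% fecal suspension, or without feces, held at 37 °C for 0–21 days in 40 mmol/L HEPES pH 6.8, 0.1% BSA, 0.1% NaN3, 1 unit/L haptoglobin, with 0–100 mmol/L phenylboronic acid ± sugars. Hb quantified by latex agglutination with anti-human Hb rabbit polyclonal; recovery (%) relative to day 0.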

[1] = Feces 1, sugar 50 mmol/L + phenylboronic acid 15 mmol/L, 0 days
[2] = Feces 1, sugar 50 mmol/L + phenylboronic acid 15 mmol/L, 7 days
[3] = Feces 1, sugar 50 mmol/L + phenylboronic acid 15 mmol/L, 14 days
[4] = Feces 1, sugar 50 mmol/L + phenylboronic acid 15 mmol/L, 21 days
[5] = Feces 1, sugar 100 mmol/L + phenylboronic acid 0.5 mmol/L, 0 days
[6] = Feces 1, sugar 100 mmol/L + phenylboronic acid 0.5 mmol/L, 7 days
[7] = Feces 1, sugar 100 mmol/L + phenylboronic acid 0.5 mmol/L, 14 days
[8] = Feces 1, sugar 100 mmol/L + phenylboronic acid 15 mmol/L, 0 days
[9] = Feces 1, sugar 100 mmol/L + phenylboronic acid 15 mmol/L, 0 days (Table 7)
[10] = Feces 1, sugar 100 mmol/L + phenylboronic acid 15 mmol/L, 7 days
[11] = Feces 1, sugar 100 mmol/L + phenylboronic acid 15 mmol/L, 7 days (Table 7)
[12] = Feces 1, sugar 100 mmol/L + phenylboronic acid 15 mmol/L, 14 days
[13] = Feces 1, sugar 100 mmol/L + phenylboronic acid 15 mmol/L, 14 days (Table 7)
[14] = Feces 1, sugar 100 mmol/L + phenylboronic acid 15 mmol/L, 21 days
[15] = Feces 1, sugar 100 mmol/L + phenylboronic acid 50 mmol/L, 0 days
[16] = Feces 1, sugar 100 mmol/L + phenylboronic acid 50 mmol/L, 7 days
[17] = Feces 1, sugar 100 mmol/L + phenylboronic acid 50 mmol/L, 14 days
[18] = Feces 1, sugar 100 mmol/L, no phenylboronic acid, 0 days
[19] = Feces 1, sugar 100 mmol/L, no phenylboronic acid, 7 days
[20] = Feces 1, sugar 100 mmol/L, no phenylboronic acid, 14 days
[21] = Feces 1, sugar 100 mmol/L, no phenylboronic acid, 21 days
[22] = Feces 2, sugar 50 mmol/L + phenylboronic acid 15 mmol/L, 0 days
[23] = Feces 2, sugar 50 mmol/L + phenylboronic acid 15 mmol/L, 7 days
[24] = Feces 2, sugar 50 mmol/L + phenylboronic acid 15 mmol/L, 14 days
[25] = Feces 2, sugar 50 mmol/L + phenylboronic acid 15 mmol/L, 21 days
[26] = Feces 2, sugar 100 mmol/L + phenylboronic acid 0.5 mmol/L, 0 days
[27] = Feces 2, sugar 100 mmol/L + phenylboronic acid 0.5 mmol/L, 7 days
[28] = Feces 2, sugar 100 mmol/L + phenylboronic acid 0.5 mmol/L, 14 days
[29] = Feces 2, sugar 100 mmol/L + phenylboronic acid 15 mmol/L, 0 days
[30] = Feces 2, sugar 100 mmol/L + phenylboronic acid 15 mmol/L, 0 days (Table 7)
[31] = Feces 2, sugar 100 mmol/L + phenylboronic acid 15 mmol/L, 7 days
[32] = Feces 2, sugar 100 mmol/L + phenylboronic acid 15 mmol/L, 7 days (Table 7)
[33] = Feces 2, sugar 100 mmol/L + phenylboronic acid 15 mmol/L, 14 days
[34] = Feces 2, sugar 100 mmol/L + phenylboronic acid 15 mmol/L, 14 days (Table 7)
[35] = Feces 2, sugar 100 mmol/L + phenylboronic acid 15 mmol/L, 21 days
[36] = Feces 2, sugar 100 mmol/L + phenylboronic acid 50 mmol/L, 0 days
[37] = Feces 2, sugar 100 mmol/L + phenylboronic acid 50 mmol/L, 7 days
[38] = Feces 2, sugar 100 mmol/L + phenylboronic acid 50 mmol/L, 14 days
[39] = Feces 2, sugar 100 mmol/L, no phenylboronic acid, 0 days
[40] = Feces 2, sugar 100 mmol/L, no phenylboronic acid, 7 days
[41] = Feces 2, sugar 100 mmol/L, no phenylboronic acid, 14 days
[42] = Feces 2, sugar 100 mmol/L, no phenylboronic acid, 21 days
[43] = Feces 3, sugar 50 mmol/L + phenylboronic acid 15 mmol/L, 0 days

OC[C@@H](O)[C@@H](O)[C@H](O)[C@@H](O)CO [Sorbitol, sorbitol]
Hb concentration [1]: 291 µg/L | Recovery ratio with respect to Hb concentration after 0 days [1]: 100% | Hb concentration [2]: 300 µg/L | Recovery ratio with respect to Hb concentration after 0 days [2]: 103% | Hb concentration [3]: 300 µg/L | Recovery ratio with respect to Hb concentration after 0 days [3]: 103% | Hb concentration [4]: 296 µg/L | Recovery ratio with respect to Hb concentration after 0 days [4]: 102% | Hb concentration [5]: 310 µg/L | Recovery ratio with respect to Hb after 0 days [5]: 100% | Hb concentration [6]: 206 µg/L | Recovery ratio with respect to Hb after 0 days [6]: 66% | Hb concentration [7]: 178 µg/L | Recovery ratio with respect to Hb after 0 days [7]: 57% | Hb concentration [8]: 287 µg/L | Recovery ratio with respect to Hb concentration after 0 days [8]: 100% | Hb concentration [9]: 301 µg/L | Recovery ratio with respect to Hb after 0 days [9]: 100% | Hb concentration [10]: 292 µg/L | Recovery ratio with respect to Hb concentration after 0 days [10]: 102% | Hb concentration [11]: 297 µg/L | Recovery ratio with respect to Hb after 0 days [11]: 99% | Hb concentration [12]: 294 µg/L | Recovery ratio with respect to Hb concentration after 0 days [12]: 102% | Hb concentration [13]: 295 µg/L | Recovery ratio with respect to Hb after 0 days [13]: 98% | Hb concentration [14]: 290 µg/L | Recovery ratio with respect to Hb concentration after 0 days [14]: 101% | Hb concentration [15]: 281 µg/L | Recovery ratio with respect to Hb after 0 days [15]: 100% | Hb concentration [16]: 274 µg/L | Recovery ratio with respect to Hb after 0 days [16]: 98% | Hb concentration [17]: 275 µg/L | Recovery ratio with respect to Hb after 0 days [17]: 98% | Hb concentration [18]: 283 µg/L | Recovery ratio with respect to Hb concentration after 0 days [18]: 100% | Hb concentration [19]: 143 µg/L | Recovery ratio with respect to Hb concentration after 0 days [19]: 51% | Hb concentration [20]: 102 µg/L | Recovery ratio with respect to Hb concentration after 0 days [20]: 36% | Hb concentration [21]: 97 µg/L | Recovery ratio with respect to Hb concentration after 0 days [21]: 34% | Hb concentration [22]: 281 µg/L | Recovery ratio with respect to Hb concentration after 0 days [22]: 100% | Hb concentration [23]: 280 µg/L | Recovery ratio with respect to Hb concentration after 0 days [23]: 100% | Hb concentration [24]: 252 µg/L | Recovery ratio with respect to Hb concentration after 0 days [24]: 90% | Hb concentration [25]: 222 µg/L | Recovery ratio with respect to Hb concentration after 0 days [25]: 79% | Hb concentration [26]: 301 µg/L | Recovery ratio with respect to Hb after 0 days [26]: 100% | Hb concentration [27]: 173 µg/L | Recovery ratio with respect to Hb after 0 days [27]: 57% | Hb concentration [28]: 154 µg/L | Recovery ratio with respect to Hb after 0 days [28]: 51% | Hb concentration [29]: 274 µg/L | Recovery ratio with respect to Hb concentration after 0 days [29]: 100% | Hb concentration [30]: 299 µg/L | Recovery ratio with respect to Hb after 0 days [30]: 100% | Hb concentration [31]: 276 µg/L | Recovery ratio with respect to Hb concentration after 0 days [31]: 101% | Hb concentration [32]: 300 µg/L | Recovery ratio with respect to Hb after 0 days [32]: 100% | Hb concentration [33]: 246 µg/L | Recovery ratio with respect to Hb concentration after 0 days [33]: 90% | Hb concentration [34]: 298 µg/L | Recovery ratio with respect to Hb after 0 days [34]: 100% | Hb concentration [35]: 219 µg/L | Recovery ratio with respect to Hb concentration after 0 days [35]: 80% | Hb concentration [36]: 275 µg/L | Recovery ratio with respect to Hb after 0 days [36]: 100% | Hb concentration [37]: 279 µg/L | Recovery ratio with respect to Hb after 0 days [37]: 101% | Hb concentration [38]: 284 µg/L | Recovery ratio with respect to Hb after 0 days [38]: 103% | Hb concentration [39]: 277 µg/L | Recovery ratio with respect to Hb concentration after 0 days [39]: 100% | Hb concentration [40]: 113 µg/L | Recovery ratio with respect to Hb concentration after 0 days [40]: 41% | Hb concentration [41]: 77 µg/L | Recovery ratio with respect to Hb concentration after 0 days [41]: 28% | Hb concentration [42]: 51 µg/L | Recovery ratio with respect to Hb concentration after 0 days [42]: 18% | Hb concentration [43]: 283 µg/L | Recovery ratio with respect to Hb concentration after 0 days [43]: 100%
